Test results as given in patent US11028075B2, “Therapeutic compounds and methods of use thereof” (GENENTECH, INC., priority 2018, dated 2021).
Where a name gives a salt, the structure may show the parent alone.

Assays:
[1] = target: T1, hNav1.7 (Homo sapiens (Human), UniProt Q15858); assay: Tritiated compound binding to membranes from cells heterologously expressing hNav1.7 and the β1 subunit (Nav1.7 LBA); details: competitive binding vs [3H]compound, membranes with hNav1.7 and β1 subunit; read-out: Nav1.7 LBA EVO IC50
Outline: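 Membranes from cells expressing hNav1.7 with β1 were incubated at room temperature with a tritiated competitive Nav1.7 inhibitor plus test compound in 100 mM NaCl, 20 mM Tris pH 7.4, 0.01% BSA; nonspecific binding was set with 1 μM unlabeled compound. Incubation was 18 h with […] radioligand, or 3 h with […]. Bound ligand was filtered and counted, and IC50 came from a 4-parameter fit.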
Target sequence in this assay (Q15858 whole entry, looked up): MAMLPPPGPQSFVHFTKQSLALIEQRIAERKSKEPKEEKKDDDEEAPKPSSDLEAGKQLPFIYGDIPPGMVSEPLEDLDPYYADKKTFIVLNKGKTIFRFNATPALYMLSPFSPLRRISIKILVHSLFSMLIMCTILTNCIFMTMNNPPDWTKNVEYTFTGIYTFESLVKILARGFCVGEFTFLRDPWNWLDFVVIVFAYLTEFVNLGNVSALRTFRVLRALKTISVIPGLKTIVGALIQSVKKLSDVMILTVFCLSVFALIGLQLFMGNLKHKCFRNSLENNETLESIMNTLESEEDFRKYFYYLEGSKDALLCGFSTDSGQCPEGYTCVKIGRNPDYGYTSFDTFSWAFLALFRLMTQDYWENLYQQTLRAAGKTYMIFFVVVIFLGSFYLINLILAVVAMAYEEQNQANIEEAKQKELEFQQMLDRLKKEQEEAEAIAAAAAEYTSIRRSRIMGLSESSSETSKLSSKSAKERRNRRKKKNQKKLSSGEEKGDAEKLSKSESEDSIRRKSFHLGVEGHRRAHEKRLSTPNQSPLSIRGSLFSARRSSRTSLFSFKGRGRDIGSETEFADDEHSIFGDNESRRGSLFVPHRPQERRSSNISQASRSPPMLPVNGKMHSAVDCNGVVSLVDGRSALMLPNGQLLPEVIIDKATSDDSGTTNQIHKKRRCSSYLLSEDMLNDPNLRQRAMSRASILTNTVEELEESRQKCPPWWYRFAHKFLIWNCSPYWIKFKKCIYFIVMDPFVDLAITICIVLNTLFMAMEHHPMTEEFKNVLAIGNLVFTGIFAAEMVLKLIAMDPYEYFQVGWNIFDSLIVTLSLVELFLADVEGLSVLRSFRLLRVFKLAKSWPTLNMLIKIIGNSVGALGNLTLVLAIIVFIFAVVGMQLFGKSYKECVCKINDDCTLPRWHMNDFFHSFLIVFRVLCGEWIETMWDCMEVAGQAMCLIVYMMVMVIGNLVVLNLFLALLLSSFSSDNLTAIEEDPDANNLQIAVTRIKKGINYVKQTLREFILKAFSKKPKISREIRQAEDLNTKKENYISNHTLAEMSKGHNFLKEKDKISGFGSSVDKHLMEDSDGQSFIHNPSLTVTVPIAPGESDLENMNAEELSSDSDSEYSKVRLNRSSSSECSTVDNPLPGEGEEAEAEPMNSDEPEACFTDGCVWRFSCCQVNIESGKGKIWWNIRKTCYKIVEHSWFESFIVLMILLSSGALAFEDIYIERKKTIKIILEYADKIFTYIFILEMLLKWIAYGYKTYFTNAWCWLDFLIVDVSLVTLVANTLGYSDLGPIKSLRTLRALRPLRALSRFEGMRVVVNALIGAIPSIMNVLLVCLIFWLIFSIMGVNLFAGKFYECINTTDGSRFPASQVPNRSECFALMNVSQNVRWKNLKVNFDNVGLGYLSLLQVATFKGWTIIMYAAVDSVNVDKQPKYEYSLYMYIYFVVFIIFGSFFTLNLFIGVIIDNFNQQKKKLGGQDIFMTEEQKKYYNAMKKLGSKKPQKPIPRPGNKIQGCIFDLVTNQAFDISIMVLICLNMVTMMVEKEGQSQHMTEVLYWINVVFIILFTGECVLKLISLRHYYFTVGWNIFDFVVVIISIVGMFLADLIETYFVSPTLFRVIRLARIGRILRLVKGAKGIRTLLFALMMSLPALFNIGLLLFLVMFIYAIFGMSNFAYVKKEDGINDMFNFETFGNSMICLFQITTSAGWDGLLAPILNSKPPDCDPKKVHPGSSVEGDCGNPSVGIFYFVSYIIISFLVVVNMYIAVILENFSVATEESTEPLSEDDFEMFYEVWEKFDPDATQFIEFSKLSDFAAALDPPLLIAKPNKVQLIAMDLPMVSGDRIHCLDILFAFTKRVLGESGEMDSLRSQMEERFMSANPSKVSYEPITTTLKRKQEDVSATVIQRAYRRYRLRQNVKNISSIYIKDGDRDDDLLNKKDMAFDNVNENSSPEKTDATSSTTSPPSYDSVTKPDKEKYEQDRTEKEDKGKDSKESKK
Target sequence in this assay (Q07699 whole entry partner, looked up): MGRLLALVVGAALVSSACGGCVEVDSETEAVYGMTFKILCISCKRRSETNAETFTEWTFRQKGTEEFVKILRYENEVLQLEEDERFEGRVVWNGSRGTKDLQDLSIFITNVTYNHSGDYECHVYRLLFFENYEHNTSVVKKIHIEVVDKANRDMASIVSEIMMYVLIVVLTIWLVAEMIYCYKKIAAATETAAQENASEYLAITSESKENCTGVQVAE

[2] = target: T1, hNav1.7; assay: Electrophysiological assay (EP), voltage clamp on Syncropatch 384PE, CHO cells stably expressing Nav1.7; assay type: cell-based; details: holding potential −50 mV, 7.5 min compound incubation, read-out: EP_SP hNav1.7 EVO IC50
Outline: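 Whole-cell automated patch clamp was run on CHO cells stably expressing human Nav1.7 cDNA, with internal solution CsCl/EGTA pH 7.2, external solution 80 mM NaCl pH 7.4, and 0.1% Pluronic F-127. From a −50 mV holding potential: −10 mV for 10 ms, −150 mV for 20 ms, then −10 mV for 10 ms, where current was measured. Inhibition was taken after 7.5 min compound incubation, with TTX added for full block.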
Target sequence in this assay (Q15858 other isoform, or with tags, fused parts or gaps): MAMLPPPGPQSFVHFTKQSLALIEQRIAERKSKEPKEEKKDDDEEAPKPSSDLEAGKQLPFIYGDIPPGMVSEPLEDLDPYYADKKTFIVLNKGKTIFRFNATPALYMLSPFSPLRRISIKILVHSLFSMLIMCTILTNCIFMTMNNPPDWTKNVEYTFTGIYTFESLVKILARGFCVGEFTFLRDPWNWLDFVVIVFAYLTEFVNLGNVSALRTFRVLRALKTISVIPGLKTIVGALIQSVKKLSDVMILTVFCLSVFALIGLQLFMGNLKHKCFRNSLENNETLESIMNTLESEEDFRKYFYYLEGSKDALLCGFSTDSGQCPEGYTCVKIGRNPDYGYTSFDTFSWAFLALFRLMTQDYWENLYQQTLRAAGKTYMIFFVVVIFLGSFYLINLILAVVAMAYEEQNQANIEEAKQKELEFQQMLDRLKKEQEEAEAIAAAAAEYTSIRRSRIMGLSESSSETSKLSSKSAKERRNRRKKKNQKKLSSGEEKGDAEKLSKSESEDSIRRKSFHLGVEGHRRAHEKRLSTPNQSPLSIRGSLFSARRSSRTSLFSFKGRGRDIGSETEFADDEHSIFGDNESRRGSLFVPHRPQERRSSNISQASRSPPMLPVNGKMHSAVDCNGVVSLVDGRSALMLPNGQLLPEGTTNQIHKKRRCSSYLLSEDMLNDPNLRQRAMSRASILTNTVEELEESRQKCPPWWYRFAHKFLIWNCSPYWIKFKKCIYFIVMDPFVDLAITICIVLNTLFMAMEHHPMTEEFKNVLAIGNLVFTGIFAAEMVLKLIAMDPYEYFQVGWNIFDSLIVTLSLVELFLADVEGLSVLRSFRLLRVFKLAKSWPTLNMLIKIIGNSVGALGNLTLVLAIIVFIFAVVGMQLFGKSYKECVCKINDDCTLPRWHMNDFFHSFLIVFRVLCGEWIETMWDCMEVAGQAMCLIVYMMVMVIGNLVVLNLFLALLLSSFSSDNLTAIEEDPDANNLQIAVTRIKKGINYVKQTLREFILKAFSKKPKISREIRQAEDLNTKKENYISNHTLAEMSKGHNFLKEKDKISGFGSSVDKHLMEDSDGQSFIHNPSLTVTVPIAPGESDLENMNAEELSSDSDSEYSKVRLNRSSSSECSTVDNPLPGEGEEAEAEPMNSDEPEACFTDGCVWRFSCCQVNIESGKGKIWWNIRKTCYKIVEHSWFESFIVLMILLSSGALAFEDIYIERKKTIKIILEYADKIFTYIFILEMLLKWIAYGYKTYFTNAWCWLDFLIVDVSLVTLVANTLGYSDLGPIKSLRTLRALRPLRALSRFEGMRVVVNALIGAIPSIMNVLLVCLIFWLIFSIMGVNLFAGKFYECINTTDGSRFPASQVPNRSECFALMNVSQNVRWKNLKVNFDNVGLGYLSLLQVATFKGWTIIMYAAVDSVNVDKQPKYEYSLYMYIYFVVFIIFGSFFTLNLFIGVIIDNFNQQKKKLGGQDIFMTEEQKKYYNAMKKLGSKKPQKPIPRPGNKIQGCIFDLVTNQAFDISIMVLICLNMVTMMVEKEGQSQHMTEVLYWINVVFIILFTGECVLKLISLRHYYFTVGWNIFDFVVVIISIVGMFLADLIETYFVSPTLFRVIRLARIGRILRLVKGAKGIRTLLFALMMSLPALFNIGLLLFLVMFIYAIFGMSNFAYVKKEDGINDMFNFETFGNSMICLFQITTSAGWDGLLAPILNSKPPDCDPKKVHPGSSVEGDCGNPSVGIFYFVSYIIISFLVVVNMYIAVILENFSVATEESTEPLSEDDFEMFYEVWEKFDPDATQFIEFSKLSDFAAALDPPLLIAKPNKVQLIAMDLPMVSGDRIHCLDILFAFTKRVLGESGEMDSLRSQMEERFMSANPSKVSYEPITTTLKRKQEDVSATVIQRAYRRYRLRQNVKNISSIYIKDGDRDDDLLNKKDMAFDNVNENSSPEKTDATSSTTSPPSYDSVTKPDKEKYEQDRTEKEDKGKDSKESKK

Row | IC50 [1] [nM] | IC50 [2] [nM] | Compound
1 | 35.3 | 2.59 | CN(C)[C@H]1C[C@@H](c2cccc(C(F)(F)F)c2)CC[C@@H]1Oc1ccc(S(=O)(=O)Nc2ccncn2)c(F)c1 [Example 57, 4-(((1S,2S,4S)-2-(Dimethylamino)-4-(3-(trifluoromethyl)phenyl)cyclohexyl)oxy)-2-fluoro-N-(pyrimidin-4-yl)benzenesulfonamide formate]
2 | 1.03 | 1.55 | CN(C)[C@H]1C[C@@H](c2cc(C(F)(F)F)ccc2F)CC[C@@H]1Nc1cc(F)c(S(=O)(=O)Nc2ccncn2)cc1Cl [Example 17, 5-chloro-4-(((1S,2S,4S)-2-(dimethylamino)-4-(2-fluoro-5-(trifluoromethyl)phenyl)cyclohexyl)-amino)-2-fluoro-N-(pyrimidin-4-yl)benzenesulfonamide]

Row | Compound | IC50 [1] [nM] | IC50 [2] [nM]
3 | CN(C)[C@H]1C[C@@H](c2cccc(C(F)(F)F)c2)CC[C@@H]1N1C(=O)COc2cc(S(=O)(=O)Nc3ccncn3)c(F)cc21 [Example 1, 4-((1S,2S,4S)-2-(Dimethylamino)-4-(3-(trifluoromethyl)phenyl)cyclohexyl)-6-fluoro-3-oxo-N-(pyrimidin-4-yl)-3,4-dihydro-2H-benzo[b][1,4]oxazine-7-sulfonamide formate] | 18.8 | 3.13
